# Laboratory results reported in patent publication US20260023070A1, “OPTOGENETIC ALPHA-SYNUCLEIN AGGREGATION SYSTEM-BASED COMPOUND SCREENING PLATFORM IN PD-hiPSC-mDA NEURONS” (The Johns Hopkins University, priority 2022, published 2026).
# What was measured:
# [1] = system: human PD iPSC-derived mDA neurons treated with α-syn PFF; assay: α-syn PFF model in non-OASIS human PD hiPSC-derived mDA neurons (TX-insoluble pS129-α-syn); type: cell-based; details: α-syn PFF with compound for 14 days
# Method: (§1) To validate the effects of these two compounds on the OASIS-independent model, α-syn PFF were treated with mouse primary neurons and non-OASIS-human PD hiPSC-derived mDA neurons with CDC 021 and BAG 956.
# [2] = system: PI3K-PDK1/AKT/mTOR signaling pathway; assay: PI3K/PDK1 downstream target phosphorylation in α-syn PFF-treated PD hiPSC-derived dopaminergic neurons; type: cell-based, human
# Excerpt: Since PI3K-PDK1/AKT/mTOR signaling pathway plays a critical role in regulation of autophagy, it was investigated the effects of BAG 956 treatments on PFF models. […] Taken together, BAG 956 may act as an autophagy-enhancing drug through inhibition of the PI3K-PDK1/AKT/mTOR signaling pathway (FIG. 18I).
# [3] = system: α-syn PFF injected mice; assay: In vivo intrastriatal α-syn PFF mouse model, oral BAG 956 (behaviour, histology, biochemistry)
# Method: To test the neuroprotective potential of BAG 956, in vivo α-syn PFF mouse model was used for a short-term period. […] Next, BAG 956 efficacy was validated for long-term treatment on α-syn PFF mouse model by comprehensive behavioral and biochemical assays. Behavioral analysis was performed to evaluate the behavioral defect elicited by intrastriatal α-syn PFF injection and any restoration of behavioral dysfunction by oral administration of BAG 956 for 6 months at a low (2 mg/kg) or high (10 mg/kg) concentration after one-month recovery from α-syn PFF injection. PBS injected mice were treated vehicle or BAG956^high (10 mg/kg), whereas α-syn PFF injected mice were orally administered with vehicle, BAG 956^low (2 mg/kg), or BAG956^high (10 mg/kg) (FIG. 13A). […] The open field test (OFT) and elevated plus maze (EPM) were performed to evaluate locomotion, exploration, and anxiety behaviors. […] Next, hippocampal- or amygdala-dependent learning and memory based contextual or cued fear conditioning tests were performed. […] To examine whether the oral administration of BAG 956 could rescue the loss of DA neurons induced by intrastriatal α-syn PFF injection, the number of TH-positive neurons in the substantia nigra pars compacta (SNpc) was measured via an unbiased stereological counting analysis.
# [4] = system: mouse primary neurons treated with α-syn PFF; assay: α-syn PFF model in mouse primary neurons (TX-insoluble pathologic α-syn); type: cell-based
# Method: as §1
# [5] = system: tau PFF treated mouse cortical neurons; assay: tau PFF treated mouse cortical neurons, p-Tau western blot; type: cell-based
# Method: It was tested whether the BAG956 compound can be beneficial in other proteinopathy models. The BAG and CDC compounds were used on the tau PFF treated mouse […] neurons (FIGS. 15A-15D) and measured expression levels with three different phosphorylated-Tau (p-Tau) antibodies.
# [6] = oral, 6 months, both 2 mg/kg and 10 mg/kg
smiles,measurement,setting,value
Cc1nc2cnc3ccc(C#Cc4cccnc4)cc3c2n1-c1ccc(C(C)(C)C#N)cc1 [BAG 956],TX-insoluble pS129-α-syn,[1],significant decrease
same,"Phosphorylation of PDK1 downstream targets PI3K, AKT, S6K, and mTOR",[2],significantly reduced
same,pathologic pSer129-α-syn immunoreactivity in TH-positive neurons of the SN (IHC),"[3]; long-term oral, 10 mg/kg",significantly rescued
same,number of TH- and Nissl-positive stained DA neurons in SNpc (stereological counting),"[3]; oral, 10 mg/kg",recovered
same,protein levels of TH in ventral midbrain and striatum,"[3]; oral, 10 mg/kg",rescued
same,striatal TH-positive fiber density (IHC),"[3]; oral, 10 mg/kg",rescued
same,endpoint body mass,"[3]; oral, 6 months, 2 mg/kg or 10 mg/kg, all groups",No endpoint body mass differences
same,"time spent, number of entries in the far zone of the open arm of the EPM","[3]; oral, 6 months, 10 mg/kg",significantly restored
same,"time spent, number of entries, travelled distance in the center zone of the OFT","[3]; oral, 6 months, 10 mg/kg",significantly restored
same,contextual or cued fear conditioning: total freezing time and freezing episode,[3]; [6],recovered
same,fore- and hind-limb grip strength,[3]; [6],dramatically recovered
same,latency to fall from the rotarod test,[3]; [6],dramatically recovered
same,levels of pS129-α-syn in the TX-insoluble fraction of ventral midbrain (WB),"[3]; oral, both 2 mg/kg and 10 mg/kg",significantly reduced
same,pathologic α-syn in the Triton X-100 (TX)-insoluble fraction,[4],significantly reduced
same,"all three forms of p-Tau (AT8, AT180, Tau-217)",[5],significantly downregulated
